Measurements: PubChem BioAssay AID977605 (Broad Institute, 2014)
Active and inactive are the calls of the source.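 How the source made its calls: active means fitted curve reaches 40% activation below the top valid tested dose, in every test run; inconclusive means test runs disagree on the call; inactive means the rest, including effects opposite to the expected direction.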

experiment: endothelial E-selectin upregulation by compounds – imaging, HUVEC, cherry-picked samples, dose response (AID 977605); settings: HUVEC E-selectin immunostaining, at 18 µM (top of the series), percent of TNF-alpha response over vehicle;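 further: signal is the share of imaged cells scored positive for E-selectin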

| SMILES | activation |
| --- | --- |
| C[C@@H]1CN([C@H](C)CO)C(=O)c2cccc(NC(=O)CCCCCC(=O)Nc3ccccc3N)c2O[C@H]1CN(C)Cc1ccc2c(c1)OCO2 | 0.253% (inactive) |

same assay, conditions: HUVEC E-selectin immunostaining, at 19.5 µM (top of the series), percent of TNF-alpha response over vehicle

| SMILES | activation |
| --- | --- |
| C[C@@H]1CN([C@H](C)CO)C(=O)c2cccc(NC(=O)Nc3ccc(C(F)(F)F)cc3)c2O[C@@H]1CN(C)S(=O)(=O)c1cccs1 | -0.223% (inactive) |
| Cc1[nH]c(=O)c(C#N)cc1-c1ccncc1 | -0.055% (inactive) |
| C[C@@H]1CN([C@H](C)CO)C(=O)c2cccc(NC(=O)CCCCCC(=O)Nc3ccccc3N)c2O[C@@H]1CN(C)S(=O)(=O)c1cn(C)cn1 | -0.195% (inactive) |
| COc1ccc(CN(C)C[C@@H]2Oc3ccc(NC(=O)c4ccncc4)cc3C(=O)N([C@@H](C)CO)C[C@H]2C)cc1 | 19.2% (inactive) |
| Cc1ccc(S(=O)(=O)N(C)C[C@@H]2Oc3ccc(N(C)C)cc3C(=O)N([C@H](C)CO)C[C@H]2C)cc1 | 0.022% (inactive) |
| COc1ccc(C(=O)N(CCc2ccccc2)Cc2ccccc2)c(OC)n1 | -0.136% (inactive) |
| C[C@H]1CN([C@@H](C)CO)C(=O)c2cccc(NC(=O)c3ccc(-c4nccs4)cc3)c2O[C@@H]1CN(C)Cc1ccc(Cl)c(Cl)c1 | 4.07% (inactive) |
| CNC(=O)Oc1ccc2c(c1)[C@]1(C)CCN(C)C1N2C (stereo not given in full) | -0.106% (inactive) |
| Cc1[nH]c(C)c(S(=O)(=O)N2CCCCC2)c1C(=O)N1CCCC1 | -0.044% (inactive) |
| Cc1c(C(=O)NCc2ccco2)oc2ccccc12 | -0.246% (inactive) |
| C/C(=N\NC(=O)C1CC1)c1ccc(Cl)cc1 | -0.246% (inactive) |
| Cc1cccc(NS(=O)(=O)c2ccc(S(=O)(=O)N3CCCC3)cc2)c1 | 1.83% (inactive) |
| N#CC1(NC(=O)CN2C(=O)c3ccccc3C2=O)CCCCC1 | 16.1% (inactive) |
| CN(C)CCN1CCN(C2CN(Cc3cn(Cc4ccc(C(F)(F)F)cc4)nn3)S(=O)(=O)C2)CC1 (stereo not given) | 1.57% (inactive) |
| CO[C@H]1CN(C)C(=O)c2cc(NC(=O)Nc3ccc(Cl)cc3)ccc2OC[C@H](C)NC[C@H]1C | 0.158% (inactive) |
| COc1ccc(Nc2n[nH]c(N)c2C(N)=O)cc1 | -0.163% (inactive) |
| C[C@@H]1CN([C@H](C)CO)C(=O)Cc2cc(NC(=O)Cc3ccccc3)ccc2O[C@H]1CN(C)S(C)(=O)=O | -0.135% (inactive) |
| CCC(=O)N(C)C[C@H]1Oc2ncc(Br)cc2C(=O)N([C@@H](C)CO)C[C@H]1C | -0.195% (inactive) |
| COc1ccc(S(=O)(=O)N(C)C[C@H]2Oc3c(NC(=O)Nc4c(C)noc4C)cccc3C(=O)N([C@@H](C)CO)C[C@H]2C)cc1 | -0.174% (inactive) |
| CC(C)NC(=O)N(C)C[C@@H]1Oc2ccc(NS(=O)(=O)c3cccs3)cc2CC(=O)N([C@@H](C)CO)C[C@H]1C | 0.096% (inactive) |
| O=C(c1cc(COc2ccc(F)cc2Cl)on1)N(Cc1ccncc1)CC1CCCO1 (stereo not given) | -0.279% (inactive) |
| CN1C(=O)c2cc(NS(C)(=O)=O)ccc2OC[C@@H]2O[C@H](CC(=O)NCc3ccc(-c4ccccc4)cc3)CC[C@@H]21 | -0.043% (inactive) |
| CC(C)CC#Cc1ccc2c(c1)O[C@H](CN(C)Cc1ccncc1)[C@H](C)CN([C@@H](C)CO)S2(=O)=O | -0.038% (inactive) |
| Cc1cccc(NS(=O)(=O)c2csc(C(N)=O)c2)c1C | 0.111% (inactive) |
| COc1ccc(S(=O)(=O)N(C)C[C@@H]2Oc3c(NS(=O)(=O)c4ccc(F)cc4)cccc3C(=O)N([C@H](C)CO)C[C@@H]2C)cc1 | -0.15% (inactive) |
| Cc1ccc(NC(=O)CN2CCOCC2)cc1Cl | 0.043% (inactive) |
| C[C@@H]1CN([C@@H](C)CO)C(=O)c2cccc(NC(=O)c3ccc(-c4nccs4)cc3)c2O[C@H]1CN(C)Cc1ccc(Oc2ccccc2)cc1 | 3.4% (inactive) |
| CN(Cc1cccc2ncccc12)C(=O)CC1C(=O)NCCN1Cc1ccc(F)cc1 (stereo not given) | -0.111% (inactive) |

| SMILES | activation |
| --- | --- |
| CCN(CC)C(=O)c1cn(-c2cccc(OC)c2)c(=O)c2ccccc12 | -0.108% (inactive) |
| CC(C)NC(=O)N(C)C[C@@H]1Oc2c(NC(=O)c3cnccn3)cccc2C(=O)N([C@@H](C)CO)C[C@@H]1C | -0.012% (inactive) |
| COc1ccc(S(=O)(=O)N2CCOCC2)cc1C(=O)NCc1ccccc1CN1CCCC1 | 0.269% (inactive) |
| CC(C)OC(=O)c1cccnc1N1CCN(c2cccc(Cl)c2)CC1 | 0.039% (inactive) |
| C[C@@H]1CN([C@H](C)CO)C(=O)c2cc(NS(C)(=O)=O)ccc2O[C@@H]1CN(C)Cc1ccc(C(F)(F)F)cc1 | -0.068% (inactive) |
| C[C@@H]1CN([C@H](C)CO)C(=O)c2cc(NS(C)(=O)=O)ccc2O[C@H]1CN(C)C(=O)Nc1ccccc1 | -0.057% (inactive) |
| C[C@@H]1CN([C@@H](C)CO)C(=O)Cc2cc(NC(=O)c3ccncc3)ccc2O[C@@H]1CN(C)S(C)(=O)=O | 4.61% (inactive) |
| COc1ccc(S(=O)(=O)Nc2ccc3c(c2)C(=O)N([C@H](C)CO)C[C@@H](C)[C@H](CN(C)Cc2ccc(Cl)c(Cl)c2)O3)cc1 | -0.125% (inactive) |
| Cc1ccccc1CNc1ncnc2cc(Cl)ccc12 | 0.221% (inactive) |
| C=C(C)CCC(C)N1CCC(n2nccc2NC(=O)CCOc2ccccc2)CC1 (stereo not given) | -0.056% (inactive) |
| C[C@H]1CN([C@@H](C)CO)C(=O)c2cccc(NC(=O)Nc3ccc(F)cc3)c2O[C@H]1CN(C)CC1CCCCC1 | -0.099% (inactive) |
| C[C@H]1CN([C@@H](C)CO)C(=O)c2cc(C#Cc3cccc(F)c3)cnc2O[C@@H]1CN(C)C(=O)C1CC1 | -0.134% (inactive) |
| COc1ccc(S(=O)(=O)N(C)C[C@H]2Oc3ccc(NC(=O)c4ccncc4)cc3C(=O)N([C@@H](C)CO)C[C@@H]2C)cc1 | -0.047% (inactive) |
| Cc1ccccc1N(CC(=O)NC1CCCCC1)C(=O)CNC(=O)c1cccs1 | 0.744% (inactive) |
| CCOC(=O)c1ccc(N(C(=O)c2ccco2)C(C(=O)NC2CCCCC2)c2ccncc2)cc1 (stereo not given) | -0.129% (inactive) |
| COc1ccc(NC(=O)Nc2cccc3c2O[C@H](CN(C)C(=O)NC2CCCCC2)[C@H](C)CN([C@H](C)CO)C3=O)cc1 | 0.915% (inactive) |
| C[C@@H]1CN([C@@H](C)CO)C(=O)c2cccc(NC(=O)Nc3ccc(F)cc3)c2O[C@@H]1CN(C)Cc1ccncc1 | -0.005% (inactive) |
| C[C@H]1CN([C@@H](C)CO)C(=O)c2cc(N(C)C)ccc2O[C@H]1CN(C)S(=O)(=O)c1cn(C)cn1 | 0.81% (inactive) |
| C/C(=N\NC(=O)c1cc(C(C)C)[nH]n1)c1ccco1 | 0.133% (inactive) |
| COc1ccc(NC(=O)Nc2ccc3c(c2)C(=O)N([C@@H](C)CO)C[C@H](C)[C@@H](CN(C)C)O3)cc1 | 1.42% (inactive) |
| C[C@@H]1CN([C@@H](C)CO)C(=O)Cc2cc(NC(=O)Cn3cnnn3)ccc2O[C@H]1CN(C)C(=O)Nc1ccc(C(F)(F)F)cc1 | -0.025% (inactive) |
| O=C(c1ccco1)N1CCN(C(=O)C2CC2)CC1 | -0.098% (inactive) |
| Cc1ccc(S(=O)(=O)N(C)C[C@H]2Oc3ccc(N(C)C)cc3C(=O)N([C@@H](C)CO)C[C@@H]2C)cc1 | 9.64% (inactive) |
| Cc1c(N(C)C(=O)COc2ccc3ccccc3c2)c(=O)n(-c2ccccc2)n1C | -0.279% (inactive) |
| C[C@H](CO)N1C[C@H](C)[C@@H](CN(C)Cc2ccc(Oc3ccccc3)cc2)Oc2ccc(NC(=O)Nc3ccc(C(F)(F)F)cc3)cc2CC1=O | -0.23% (inactive) |
| C[C@H](CO)N1C[C@H](C)[C@H](CN(C)Cc2ccc(C(=O)Nc3ccccc3N)cc2)Oc2ccc(NS(=O)(=O)c3cccs3)cc2CC1=O | 6.58% (inactive) |
| CC(C)NC(=O)N(C)C[C@@H]1Oc2ccc(NC(=O)CCN3CCOCC3)cc2C(=O)N([C@@H](C)CO)C[C@H]1C | 0.429% (inactive) |

same assay, conditions: HUVEC E-selectin immunostaining, at 21 µM (top of the series), percent of TNF-alpha response over vehicle

| SMILES | activation |
| --- | --- |
| C[C@H](CO)N1C[C@H](C)[C@H](CN(C)C(=O)c2ccccc2)OCc2ccccc2-c2c(n(C)c3ccccc23)C1=O | -0.093% (inactive) |
| CC(C)NC(=O)N(C)C[C@H]1Oc2ccc(NC(=O)CCC(F)(F)F)cc2CC(=O)N([C@@H](C)CO)C[C@H]1C | 5.5% (inactive) |
| C[C@H]1CN([C@@H](C)CO)C(=O)Cc2cc(NC(=O)Nc3ccc(C(F)(F)F)cc3)ccc2O[C@H]1CN(C)C(=O)Nc1cccc2ccccc12 | 0.822% (inactive) |
| CC(C)NC(=O)Nc1ccc2c(c1)C(=O)N([C@@H](C)CO)C[C@@H](C)[C@H](CN(C)Cc1ccc(C(F)(F)F)cc1)O2 | 0.029% (inactive) |
| C[C@@H]1CN([C@H](C)CO)C(=O)c2cccc(NS(C)(=O)=O)c2O[C@@H]1CN(C)Cc1ccc(Oc2ccccc2)cc1 | -0.185% (inactive) |
| COc1ccc(S(=O)(=O)Nc2cccc3c2O[C@H](CN(C)C(=O)Nc2c(C)noc2C)[C@@H](C)CN([C@H](C)CO)C3=O)cc1 | -0.117% (inactive) |
| Cc1noc(C)c1S(=O)(=O)Nc1ccc2c(c1)C(=O)N([C@H](C)CO)C[C@@H](C)[C@H](CN(C)Cc1ccncc1)O2 | -0.191% (inactive) |
| C[C@H](CO)N1C[C@H](C)[C@H](CN(C)C(=O)Nc2ccc3c(c2)OCO3)Oc2c(NS(=O)(=O)c3ccc(Cl)cc3)cccc2C1=O | -0.135% (inactive) |
| C[C@@H]1CN([C@H](C)CO)C(=O)c2cc(NS(=O)(=O)c3cn(C)cn3)ccc2O[C@H]1CN(C)Cc1ccncc1 | -0.069% (inactive) |
| C[C@H](CO)N1C[C@H](C)[C@H](CN(C)Cc2ccncc2)Oc2ccc(NS(C)(=O)=O)cc2CC1=O | 0.077% (inactive) |
| C[C@@H]1CN([C@H](C)CO)S(=O)(=O)c2ccc(-c3ccncc3)cc2O[C@H]1CN(C)Cc1ccc(Oc2ccccc2)cc1 | 23.2% (inactive) |
| C[C@H](CO)N1C[C@H](C)[C@H](CN(C)S(=O)(=O)c2ccccc2)Oc2c(NC(=O)C3CCOCC3)cccc2C1=O | 3.15% (inactive) |
| Cc1noc(C)c1NC(=O)N(C)C[C@@H]1Oc2ccc(NC(=O)c3ccncc3)cc2C(=O)N([C@H](C)CO)C[C@@H]1C | 0.043% (inactive) |
| Cc1noc(C)c1NC(=O)N(C)C[C@@H]1Oc2ccc(NS(=O)(=O)c3cccs3)cc2CC(=O)N([C@H](C)CO)C[C@@H]1C | 10.8% (inactive) |
